According to publication PMC8606745 (Frontiers in Microbiology, 2021):
Where two headings read alike, the source gives them in different places. Square brackets hold non-standard residues; d marks the D form. Peptide text beside a SMILES is read from it. * marks the point of attachment. Lauroyl = CCCCCCCCCCCC(=O)*; Butyryl = CCCC(=O)*

What was measured:
[1] = tested on: X. fastidiosa subsp. fastidiosa IVIA 5387.2; assay type: cell-based, Xylella fastidiosa
[2] = tested on: X. fastidiosa subsp. fastidiosa IVIA 5387.2; conditions: for log reduction of cell viability: 3 h, 50 μM

Row | Compound | Bactericidal activity: Reduction in viability (Log N0/N) [2] | Biofilm formation Level (antibiofilm activity) [1] | Biofilm formation Ratio (treatment/NTC) [1] | Planktonic cells Ratio (treatment/NTC) [1] | also measured
1 | CC[C@H](C)[C@H](NC(=O)[C@H](C)NC(=O)[C@H](Cc1c[nH]cn1)NC(=O)[C@@H]1CCCN1C(=O)[C@@H](NC(=O)[C@H](CC(C)C)NC(=O)[C@H](CO)NC(=O)[C@H](Cc1ccccc1)NC(=O)[C@H](CC(C)C)NC(=O)[C@@H](N)Cc1ccccc1)[C@@H](C)CC)C(=O)NCC(=O)NCC(=O)N[C@@H](CC(C)C)C(=O)N[C@H](C(=O)N[C@@H](CO)C(=O)N[C@@H](C)C(=O)N[C@@H](Cc1ccccc1)C(=O)N[C@@H](CCCCN)C(N)=O)[C@@H](C)CC [AamAP1] | 1.38 ± 0.12 Log N0/N | – | – | – | Effect on X. fastidiosa growth in the antibiofilm test [1]: affected X. fastidiosa’s growth; Hemolysis (horse erythrocytes; 150 µM): 100.00 ± 1.3%; Hemolysis (horse erythrocytes; 250 µM): 100.0 ± 4.1%; Hemolysis (horse erythrocytes; 375 µM): 100.0 ± 4.4%
2 | CC[C@H](C)[C@H](NC(=O)[C@H](C)NC(=O)[C@H](CCCNC(=N)N)NC(=O)[C@@H]1CCCN1C(=O)[C@@H](NC(=O)[C@H](CC(C)C)NC(=O)[C@H](CO)NC(=O)[C@H](Cc1ccccc1)NC(=O)[C@H](CC(C)C)NC(=O)[C@@H](N)Cc1ccccc1)[C@@H](C)CC)C(=O)NCC(=O)NCC(=O)N[C@@H](CC(C)C)C(=O)N[C@H](C(=O)N[C@@H](CO)C(=O)N[C@@H](C)C(=O)N[C@@H](Cc1ccccc1)C(=O)N[C@@H](CCCCN)C(N)=O)[C@@H](C)CC [AamAP-R] | 0.78 ± 0.01 Log N0/N | – | – | – | Effect on X. fastidiosa growth in the antibiofilm test [1]: affected X. fastidiosa’s growth
3 | CC[C@H](C)[C@H](NC(=O)[C@H](C)NC(=O)[C@H](CCCCN)NC(=O)[C@@H]1CCCN1C(=O)[C@@H](NC(=O)[C@H](CC(C)C)NC(=O)[C@H](CO)NC(=O)[C@H](Cc1ccccc1)NC(=O)[C@H](CC(C)C)NC(=O)[C@@H](N)Cc1ccccc1)[C@@H](C)CC)C(=O)NCC(=O)NCC(=O)N[C@@H](CC(C)C)C(=O)N[C@H](C(=O)N[C@@H](CO)C(=O)N[C@@H](C)C(=O)N[C@@H](Cc1ccccc1)C(=O)N[C@@H](CCCCN)C(N)=O)[C@@H](C)CC [AamAP-S1] | 2.45 ± 0.09 Log N0/N | – | – | – | Effect on X. fastidiosa growth in the antibiofilm test [1]: affected X. fastidiosa’s growth; log reduction of cell viability [2]: 2-3 log
4 | CCCC(=O)N[C@H](C(=O)N[C@@H](CC(C)C)C(=O)N1CCC[C@H]1C(=O)N[C@H](Cc1ccccc1)C(=O)N[C@@H](CCCCN)C(=O)N[C@H](Cc1ccccc1)C(=O)N1CCC[C@H]1C(=O)N[C@H](Cc1ccccc1)C(=O)N[C@H](Cc1ccccc1)C(=O)N1CCC[C@H]1C(=O)N[C@H](Cc1ccccc1)C(=O)N[C@@H](CCCNC(=N)N)C(=O)N[C@@H](CCCNC(=N)N)C(N)=O)[C@@H](C)CC [BP526] (Butyryl-ILP[dF]K[dF]P[dF][dF]P[dF]RR-NH2) | – | – | – | – | Biofilm formation Level (antibiofilm activity) ([1]; 50 µM): High (key: High: high antibiofilm activity (ratio of biofilm formation from 0.01 to 0.2); Moderate: moderate activity (ratio from 0.29 to 0.47); Low: low activity (ratio from 0.72 to 0.77)); Biofilm formation Ratio (treatment/NTC) ([1]; 50 µM): 0.17 ± 0.02; Planktonic cells Ratio (treatment/NTC) ([1]; 50 µM): 2.17 ± 0.02; Bactericidal activity: Reduction in viability (Log N0/N) ([2]; 50 µM): 0.56 ± 0.03 Log N0/N; Hemolysis (horse erythrocytes; 150 µM): 8.3 ± 0.7%; Hemolysis (horse erythrocytes; 250 µM): 20.4 ± 0.7%; Hemolysis (horse erythrocytes; 375 µM): 46.8 ± 3.3%
5 | CCCCCCCCCCCC(=O)N[C@H](C(=O)N[C@@H](CC(C)C)C(=O)N1CCC[C@H]1C(=O)N[C@H](Cc1ccccc1)C(=O)N[C@@H](CCCCN)C(=O)N[C@H](Cc1ccccc1)C(=O)N1CCC[C@H]1C(=O)N[C@H](Cc1ccccc1)C(=O)N[C@H](Cc1ccccc1)C(=O)N1CCC[C@H]1C(=O)N[C@H](Cc1ccccc1)C(=O)N[C@@H](CCCNC(=N)N)C(=O)N[C@@H](CCCNC(=N)N)C(N)=O)[C@@H](C)CC [BP528] (Lauroyl-ILP[dF]K[dF]P[dF][dF]P[dF]RR-NH2) | – | – | – | – | Biofilm formation Level (antibiofilm activity) ([1]; 50 µM): High (key: High: high antibiofilm activity (ratio of biofilm formation from 0.01 to 0.2); Moderate: moderate activity (ratio from 0.29 to 0.47); Low: low activity (ratio from 0.72 to 0.77)); Biofilm formation Ratio (treatment/NTC) ([1]; 50 µM): 0.03 ± 0.01; Planktonic cells Ratio (treatment/NTC) ([1]; 50 µM): 0.99 ± 0.06; Bactericidal activity: Reduction in viability (Log N0/N) ([2]; 50 µM): 0.61 ± 0.12 Log N0/N; Hemolysis (horse erythrocytes; 150 µM): 92.1 ± 5.7%; Hemolysis (horse erythrocytes; 250 µM): 96.6 ± 3.1%; Hemolysis (horse erythrocytes; 375 µM): 99.1 ± 8.0%
6 | CC[C@H](C)[C@H](NC(=O)CN)C(=O)NCC(=O)N[C@@H](CCCCN)C(=O)N[C@@H](Cc1ccccc1)C(=O)N[C@@H](CC(C)C)C(=O)N[C@@H](Cc1c[nH]cn1)C(=O)N[C@@H](CO)C(=O)N[C@@H](C)C(=O)N[C@@H](CCCCN)C(N)=O [Magainin 2(1-10)] (H-GIGKFLHSAK-NH2) | 0.00 ± 0.06 Log N0/N | Low (key: High: high antibiofilm activity (ratio of biofilm formation from 0.01 to 0.2); Moderate: moderate activity (ratio from 0.29 to 0.47); Low: low activity (ratio from 0.72 to 0.77)) | 0.77 ± 0.02 | 1.67 ± 0.07 | –
7 | CC[C@H](C)[C@H](NC(=O)[C@H](CCCNC(=N)N)NC(=O)[C@H](Cc1ccccc1)NC(=O)[C@H](CCC(N)=O)NC(=O)[C@@H](N)CCCCN)C(=O)N[C@@H](CCCNC(=N)N)C(=O)N[C@H](C(=O)N[C@@H](CCCNC(=N)N)C(=O)N[C@H](C(N)=O)C(C)C)C(C)C [Peptide 1029] (H-KQFRIRVRV-NH2) | 1.18 ± 0.08 Log N0/N | High (key: High: high antibiofilm activity (ratio of biofilm formation from 0.01 to 0.2); Moderate: moderate activity (ratio from 0.29 to 0.47); Low: low activity (ratio from 0.72 to 0.77)) | 0.20 ± 0.01 | 1.71 ± 0.04 | –
8 | CC[C@H](C)[C@H](NC(=O)[C@H](CCCNC(=N)N)NC(=O)[C@H](Cc1ccccc1)NC(=O)[C@H](CCC(N)=O)NC(=O)[C@@H](N)C(C)C)C(=O)N[C@@H](CCCNC(=N)N)C(=O)N[C@H](C(=O)N[C@@H](CCCNC(=N)N)C(=O)N[C@H](C(=O)N[C@H](C(=O)N[C@H](C(=O)N[C@@H](CCCNC(=N)N)C(=O)N[C@@H](CCCCN)C(N)=O)[C@@H](C)CC)C(C)C)[C@@H](C)CC)C(C)C [Peptide 1036] (H-VQFRIRVRIVIRK-NH2) | – | High (key: High: high antibiofilm activity (ratio of biofilm formation from 0.01 to 0.2); Moderate: moderate activity (ratio from 0.29 to 0.47); Low: low activity (ratio from 0.72 to 0.77)) | – | 2.16 ± 0.06 | log reduction [2]: 3.48 log
9 | CC[C@@H](C)[C@@H](NC(=O)[C@H](N)CCCNC(=N)N)C(=O)N[C@@H](C(=O)N[C@H](Cc1c[nH]c2ccccc12)C(=O)N[C@@H](C(=O)N[C@H](CCCNC(=N)N)C(=O)N[C@@H](C(=O)N[C@H](CCCNC(=N)N)C(=O)N[C@H](CCCNC(=N)N)C(=O)N[C@H](Cc1c[nH]c2ccccc12)C(=O)N[C@H](Cc1ccccc1)C(=O)N[C@@H](C(N)=O)C(C)C)[C@H](C)CC)C(C)C)C(C)C [RIJK2] (H-[dR][dI][dV][dW][dV][dR][dI][dR][dR][dW][dF][dV]-NH2) | – | High (key: High: high antibiofilm activity (ratio of biofilm formation from 0.01 to 0.2); Moderate: moderate activity (ratio from 0.29 to 0.47); Low: low activity (ratio from 0.72 to 0.77)) | – | 1.43 ± 0.09 | –
10 | CC[C@H](C)[C@H](NC(=O)[C@H](Cc1c[nH]c2ccccc12)NC(=O)[C@H](CCCCN)NC(=O)[C@H](CCCCN)NC(=O)[C@@H](NC(=O)[C@H](CCCNC(=N)N)NC(=O)[C@H](CCCNC(=N)N)NC(=O)[C@@H](NC(=O)[C@@H](N)Cc1c[nH]c2ccccc12)[C@@H](C)CC)[C@@H](C)CC)C(=O)N[C@@H](CCCNC(=N)N)C(=O)N[C@@H](CCCNC(=N)N)C(=O)N[C@H](C(=O)N[C@@H](Cc1c[nH]cn1)C(=O)N[C@@H](CCCCN)C(N)=O)C(C)C [RR2-NH2] (H-WIRRIKKWIRRVHK-NH2) | 1.43 ± 0.12 Log N0/N | High (key: High: high antibiofilm activity (ratio of biofilm formation from 0.01 to 0.2); Moderate: moderate activity (ratio from 0.29 to 0.47); Low: low activity (ratio from 0.72 to 0.77)) | 0.13 ± 0.01 | 2.13 ± 0.07 | –
11 | CC[C@H](C)[C@H](NC(=O)[C@H](CCCNC(=N)N)NC(=O)[C@H](CCCNC(=N)N)NC(=O)[C@H](CC(C)C)NC(=O)[C@@H](N)Cc1c[nH]c2ccccc12)C(=O)N[C@@H](CCCCN)C(=O)N[C@@H](C)C(=O)N[C@@H](Cc1c[nH]c2ccccc12)C(=O)N[C@@H](CC(C)C)C(=O)N[C@@H](CCCNC(=N)N)C(=O)N[C@@H](CCCNC(=N)N)C(=O)N[C@@H](CCCCN)C(=O)N[C@@H](CCCNC(=N)N)C(=O)N[C@@H](CCCCN)C(N)=O [RR3-NH2] (H-WLRRIKAWLRRKRK-NH2) | 0.89 ± 0.09 Log N0/N | Moderate (key: High: high antibiofilm activity (ratio of biofilm formation from 0.01 to 0.2); Moderate: moderate activity (ratio from 0.29 to 0.47); Low: low activity (ratio from 0.72 to 0.77)) | 0.29 ± 0.01 | 1.66 ± 0.09 | –
12 | CC[C@H](C)[C@H](NC(=O)[C@H](CCCNC(=N)N)NC(=O)[C@H](CCCNC(=N)N)NC(=O)[C@H](CC(C)C)NC(=O)[C@H](Cc1c[nH]c2ccccc12)NC(=O)[C@H](C)NC(=O)[C@H](CCCCN)NC(=O)[C@@H](NC(=O)[C@H](CCCNC(=N)N)NC(=O)[C@H](CCCNC(=N)N)NC(=O)[C@H](CC(C)C)NC(=O)[C@@H](N)Cc1c[nH]c2ccccc12)[C@@H](C)CC)C(=O)N[C@@H](CCCCN)C(=O)N[C@@H](C)C(N)=O [RR4-NH2] | 2.08 ± 0.09 Log N0/N | High (key: High: high antibiofilm activity (ratio of biofilm formation from 0.01 to 0.2); Moderate: moderate activity (ratio from 0.29 to 0.47); Low: low activity (ratio from 0.72 to 0.77)) | 0.20 ± 0.01 | 1.84 ± 0.05 | log reduction of cell viability [2]: 2-3 log
13 | Cecropin B | – | – | – | – | Bactericidal activity: Reduction in viability (Log N0/N) ([2]; 3.1 µM): 2.13 ± 0.10 Log N0/N; Bactericidal activity: Reduction in viability (Log N0/N) ([2]; 12.5 μM): 3.19 ± 0.06 Log N0/N; log reduction ([2]; 12.5 μM): 3.19 log; Bactericidal activity: Reduction in viability (Log N0/N) ([2]; 50 µM): 4.00 ± 0.10 Log N0/N
